Data taken from US7884071B2, “Administration form for pharmaceutically active peptides with sustained release and method for the production thereof” (Zentaris GmbH, priority 2002, dated 2011).
Counter-ions that a name gives are not always drawn. Where a SMILES comes first, the peptide text is derived from it. [ ]: non-standard residue; d: D form. dPhe(4-Cl) = N[C@H](Cc1ccc(Cl)cc1)C(=O)O; d2Nal = N[C@H](Cc1ccc2ccccc2c1)C(=O)O; d(hCit) = NC(=O)NCCCC[C@@H](N)C(=O)O; NMeY = CN[C@@H](Cc1ccc(O)cc1)C(=O)O; d3Pal = N[C@H](Cc1cccnc1)C(=O)O; Nle = CCCC[C@H](N)C(=O)O

Assay: Fig. 6: Physicochemical data on D-63 153
From the text: Table printed on a drawing sheet, Fig. 6
Title: Fig. 6: Physicochemical data on D-63 153
First reader's note: Unruled property list for a single peptide; the value of 'Structural formula:' is a chemical drawing and is left empty.

CCCC[C@H](NC(=O)[C@@H](CCCCNC(N)=O)NC(=O)[C@H](Cc1ccc(O)cc1)N(C)C(=O)[C@H](CO)NC(=O)[C@@H](Cc1cccnc1)NC(=O)[C@@H](Cc1ccc(Cl)cc1)NC(=O)[C@@H](Cc1ccc2ccccc2c1)NC(C)=O)C(=O)N[C@@H](CCCNC(=N)N)C(=O)N1CCC[C@H]1C(=O)N[C@H](C)C(N)=O [D-63153 (e.g. acetate salt), Ac-D-Nal(2)-D-Cpa-D-Pal(3)-Ser-N-Me-Tyr-D-Hci- Nle-Arg-Pro-D-Ala-NH2] (Ac-[d2Nal][dPhe(4-Cl)][d3Pal]S[NMeY][d(hCit)][Nle]RP[dA]-NH2)
Solubility:: 0.75 mg/ml in water
